ChEMBL document CHEMBL1201862, “PubChem BioAssay data set” (2004)
Calls of active or inactive are those of the source.

Columns and labels:
[1] = biological target: Delta-type opioid receptor (Homo sapiens, UniProt P41143); assay: Counterscreen for agonists of heterodimerization of the mu 1 (OPRM1) and delta 1 (OPRD1) opioid receptors: Luminescence-based cell-based high throughput dose response assay to identify agonists of OPRD1 homodimerization. [Related pubchem assays (depositor defined):AID504326, AID504355, AID504692, AID504904, AID504905]; assay type: functional
Sequence of Delta-type opioid receptor (P41143 whole entry): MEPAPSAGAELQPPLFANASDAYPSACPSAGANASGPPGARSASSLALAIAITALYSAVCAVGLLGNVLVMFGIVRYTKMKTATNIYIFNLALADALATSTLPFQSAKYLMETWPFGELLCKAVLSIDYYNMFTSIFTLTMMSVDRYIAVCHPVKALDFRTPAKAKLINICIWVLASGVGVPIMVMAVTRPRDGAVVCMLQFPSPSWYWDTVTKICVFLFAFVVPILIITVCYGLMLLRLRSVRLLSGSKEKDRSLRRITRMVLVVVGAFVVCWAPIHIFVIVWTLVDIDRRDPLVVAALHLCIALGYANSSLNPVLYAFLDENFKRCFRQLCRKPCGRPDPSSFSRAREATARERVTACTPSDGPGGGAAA

Mu-type opioid receptor = Mu-type opioid receptor (Homo sapiens, UniProt P35372); assay: Counterscreen for agonists of heterodimerization of the mu 1 (OPRM1) and delta 1 (OPRD1) opioid receptors: Luminescence-based cell-based high throughput dose response assay to identify agonists of OPRM1 homodimerization.; assay type: functional;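 further: U2OS cells expressing OPRM1 and beta-arrestin as split beta-galactosidase partners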
Sequence of Mu-type opioid receptor (P35372 whole entry): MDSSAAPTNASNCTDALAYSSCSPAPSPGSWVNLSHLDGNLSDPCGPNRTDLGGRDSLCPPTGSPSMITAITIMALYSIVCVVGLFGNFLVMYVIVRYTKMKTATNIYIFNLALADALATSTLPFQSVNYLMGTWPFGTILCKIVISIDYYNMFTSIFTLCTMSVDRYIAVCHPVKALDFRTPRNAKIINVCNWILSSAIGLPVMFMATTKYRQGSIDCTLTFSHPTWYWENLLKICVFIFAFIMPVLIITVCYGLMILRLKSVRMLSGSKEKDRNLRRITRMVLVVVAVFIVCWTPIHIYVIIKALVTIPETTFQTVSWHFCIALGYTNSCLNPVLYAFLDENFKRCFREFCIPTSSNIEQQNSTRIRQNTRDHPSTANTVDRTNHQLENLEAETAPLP

[2] = biological target: 5-hydroxytryptamine receptor 5A (Homo sapiens, UniProt P47898); assay: Counterscreen for agonists of OPRM1-OPRD1 heterodimerization: luminescence-based cell-based high throughput dose response assay to identify agonists of 5-hydroxytryptamine (serotonin) 5A receptor (HTR5A). [Related pubchem assays (depositor defined):AID504326, AID504355, AID504692, AID504904, AID504905]; assay type: functional
Sequence of 5-hydroxytryptamine receptor 5A (P47898 whole entry): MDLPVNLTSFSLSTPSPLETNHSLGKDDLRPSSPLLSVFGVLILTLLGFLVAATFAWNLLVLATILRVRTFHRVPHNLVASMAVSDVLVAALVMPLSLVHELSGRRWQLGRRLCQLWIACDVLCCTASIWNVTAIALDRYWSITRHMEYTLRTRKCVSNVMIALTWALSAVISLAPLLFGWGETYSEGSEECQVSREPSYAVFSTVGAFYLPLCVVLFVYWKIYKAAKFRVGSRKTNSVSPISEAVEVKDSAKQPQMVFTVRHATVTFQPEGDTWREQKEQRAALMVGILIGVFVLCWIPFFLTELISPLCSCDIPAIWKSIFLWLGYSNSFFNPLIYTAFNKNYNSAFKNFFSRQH

[3] = biological target: T1, Short transient receptor potential channel 4 (Mus musculus, UniProt Q9QUQ5); assay: calcium entry via TRPC4 opening agents – cell-based, HEK293 TRPC4/mu-opioid, Fluo-4 calcium, dose response (AID 434937); assay type: functional
T1 sequence (Q9QUQ5 whole entry): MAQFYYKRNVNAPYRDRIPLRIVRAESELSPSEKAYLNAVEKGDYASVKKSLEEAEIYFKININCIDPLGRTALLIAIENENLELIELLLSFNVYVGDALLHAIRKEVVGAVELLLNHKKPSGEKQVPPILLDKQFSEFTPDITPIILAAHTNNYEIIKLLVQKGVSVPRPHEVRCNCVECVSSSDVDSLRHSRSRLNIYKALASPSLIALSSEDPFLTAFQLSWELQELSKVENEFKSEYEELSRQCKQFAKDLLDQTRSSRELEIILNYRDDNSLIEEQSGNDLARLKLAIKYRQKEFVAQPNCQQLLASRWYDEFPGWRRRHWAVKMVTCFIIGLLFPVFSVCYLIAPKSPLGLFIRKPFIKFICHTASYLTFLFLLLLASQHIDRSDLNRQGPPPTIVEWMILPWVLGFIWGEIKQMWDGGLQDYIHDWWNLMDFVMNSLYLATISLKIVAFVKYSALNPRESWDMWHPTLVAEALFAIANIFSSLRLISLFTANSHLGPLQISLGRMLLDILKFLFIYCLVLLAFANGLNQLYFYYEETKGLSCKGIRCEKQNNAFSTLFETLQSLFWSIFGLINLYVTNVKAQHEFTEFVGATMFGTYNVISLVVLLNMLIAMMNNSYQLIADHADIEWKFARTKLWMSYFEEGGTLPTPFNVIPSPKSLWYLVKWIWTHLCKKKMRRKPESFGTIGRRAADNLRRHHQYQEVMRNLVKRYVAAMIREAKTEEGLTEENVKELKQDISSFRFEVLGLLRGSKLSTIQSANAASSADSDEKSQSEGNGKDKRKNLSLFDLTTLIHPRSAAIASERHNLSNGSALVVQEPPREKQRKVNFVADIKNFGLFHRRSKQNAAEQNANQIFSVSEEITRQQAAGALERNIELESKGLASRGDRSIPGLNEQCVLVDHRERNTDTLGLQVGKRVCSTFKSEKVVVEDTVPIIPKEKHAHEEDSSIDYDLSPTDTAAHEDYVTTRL

[4] = biological target: T2, G-protein coupled receptor 55 (Homo sapiens, UniProt Q9Y2T6); assay: selective activators of receptor GPR55 – imaging, U2OS cells, beta-arrestin-GFP redistribution, primary screen (AID 1961); assay type: functional
T2 sequence (Q9Y2T6 whole entry): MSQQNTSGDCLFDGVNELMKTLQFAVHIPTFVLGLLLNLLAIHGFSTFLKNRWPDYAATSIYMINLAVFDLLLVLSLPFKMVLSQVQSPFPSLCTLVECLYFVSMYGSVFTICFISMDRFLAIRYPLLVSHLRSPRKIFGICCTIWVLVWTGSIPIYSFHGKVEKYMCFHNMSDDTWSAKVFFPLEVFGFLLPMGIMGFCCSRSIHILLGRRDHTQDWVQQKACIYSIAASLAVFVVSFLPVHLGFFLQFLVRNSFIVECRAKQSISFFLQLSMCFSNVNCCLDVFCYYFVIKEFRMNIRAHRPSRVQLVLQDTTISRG

Vero = assay: cells; assay type: functional; conditions: Chlorocebus sabaeus
BJ [5] = assay: growth inhibition of engineered Ras-driven BJ cells – cell-based, alamar blue fluorescence, cherrypicked samples, dose response (AID 2631); assay type: functional; conditions: Homo sapiens;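 further: confirmatory dose-response assay in RAS-dependent BJ fibroblasts engineered with TERT, LT and ST, with cytotoxicity read by fluorescence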
[6] = DRD fibroblast viability loss – cell-based, non-viral oncogenic, luminescence, dose response (AID 1934); assay type: functional; conditions: Homo sapiens
BJ [7] = assay: cells; assay type: functional, cell-based; conditions: Homo sapiens
Insulin-degrading enzyme [8] = biological target: T3, Insulin-degrading enzyme (Homo sapiens, UniProt P14735); assay: recombinant IDE activation, cell-free – biochemical, fluorescence polarization, counter-screen for IDE activator project, dose response (AID 588681)
T3 sequence (P14735 whole entry): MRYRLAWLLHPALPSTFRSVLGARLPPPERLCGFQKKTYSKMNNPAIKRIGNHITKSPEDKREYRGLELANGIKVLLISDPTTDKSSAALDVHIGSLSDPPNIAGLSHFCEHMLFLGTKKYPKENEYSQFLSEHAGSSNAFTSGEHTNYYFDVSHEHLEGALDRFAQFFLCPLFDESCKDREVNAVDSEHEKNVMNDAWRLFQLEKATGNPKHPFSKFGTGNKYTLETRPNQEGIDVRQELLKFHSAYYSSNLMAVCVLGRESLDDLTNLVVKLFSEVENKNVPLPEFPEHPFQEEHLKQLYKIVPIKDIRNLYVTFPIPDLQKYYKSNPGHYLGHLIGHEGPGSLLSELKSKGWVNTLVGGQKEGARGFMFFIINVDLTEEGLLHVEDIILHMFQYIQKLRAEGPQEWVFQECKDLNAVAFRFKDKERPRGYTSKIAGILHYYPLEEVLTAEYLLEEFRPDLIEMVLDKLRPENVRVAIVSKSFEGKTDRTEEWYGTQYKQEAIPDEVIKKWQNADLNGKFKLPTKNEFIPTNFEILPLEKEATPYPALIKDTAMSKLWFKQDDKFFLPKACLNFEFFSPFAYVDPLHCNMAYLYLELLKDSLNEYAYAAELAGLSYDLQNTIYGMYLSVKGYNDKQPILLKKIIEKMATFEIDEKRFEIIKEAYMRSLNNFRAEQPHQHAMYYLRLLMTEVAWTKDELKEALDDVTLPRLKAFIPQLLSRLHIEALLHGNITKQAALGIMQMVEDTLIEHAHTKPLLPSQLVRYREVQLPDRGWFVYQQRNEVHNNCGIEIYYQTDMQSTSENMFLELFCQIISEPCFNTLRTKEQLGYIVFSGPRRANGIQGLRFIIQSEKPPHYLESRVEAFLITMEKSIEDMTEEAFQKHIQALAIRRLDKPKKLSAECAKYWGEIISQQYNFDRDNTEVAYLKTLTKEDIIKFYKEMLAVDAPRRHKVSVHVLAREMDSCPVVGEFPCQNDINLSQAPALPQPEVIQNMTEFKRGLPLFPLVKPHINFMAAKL

HEK293 [9] = assay: membrane integrity loss in HEK cells – cell-based, fluorescence, cytotoxicity control for IDE activator project, dose response (AID 588440); assay type: functional; conditions: Homo sapiens;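 further: cytotoxicity by LDH release measuring loss of membrane integrity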
Protein RecA = biological target: T4, Protein RecA (Mycobacterium tuberculosis, UniProt P9WHJ3); assay: Fluorescence Cell-Free Homogeneous Dose Retest to Identify Inhibitors of RecA-Intein Splicing Activity. [Related pubchem assays (depositor defined):AID2097, AID2223, AID489010, AID492950]; assay type: functional
T4 sequence (P9WHJ3 whole entry): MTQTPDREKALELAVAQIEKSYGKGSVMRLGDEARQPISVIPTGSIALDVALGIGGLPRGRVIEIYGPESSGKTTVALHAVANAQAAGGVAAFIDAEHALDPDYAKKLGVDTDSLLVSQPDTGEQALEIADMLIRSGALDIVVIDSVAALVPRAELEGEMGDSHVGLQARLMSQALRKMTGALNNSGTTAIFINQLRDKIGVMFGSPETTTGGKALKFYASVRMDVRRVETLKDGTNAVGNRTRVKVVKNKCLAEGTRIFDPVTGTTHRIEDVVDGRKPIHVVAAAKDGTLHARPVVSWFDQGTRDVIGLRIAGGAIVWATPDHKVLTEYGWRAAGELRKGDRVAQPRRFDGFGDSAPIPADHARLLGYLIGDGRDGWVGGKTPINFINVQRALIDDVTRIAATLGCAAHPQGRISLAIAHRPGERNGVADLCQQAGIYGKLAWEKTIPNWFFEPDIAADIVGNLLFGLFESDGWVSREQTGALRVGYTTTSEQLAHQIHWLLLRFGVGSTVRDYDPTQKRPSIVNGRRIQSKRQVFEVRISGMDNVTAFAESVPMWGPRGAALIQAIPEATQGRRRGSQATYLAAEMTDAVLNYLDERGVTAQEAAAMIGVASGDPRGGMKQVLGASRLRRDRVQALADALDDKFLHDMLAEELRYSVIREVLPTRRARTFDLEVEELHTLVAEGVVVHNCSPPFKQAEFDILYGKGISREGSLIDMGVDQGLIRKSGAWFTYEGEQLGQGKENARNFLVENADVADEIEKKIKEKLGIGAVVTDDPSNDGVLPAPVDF

BJ [10] = assay: BJ-TERT-LT-ST fibroblast viability loss – cell-based, RAS-independent, luminescence, dose response (AID 1935); assay type: functional; conditions: Homo sapiens;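 further: BJ fibroblasts immortalized with TERT plus LT and ST oncogenes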
HEK293 [11] = assay: cells; conditions: Homo sapiens
[12] = biological target: T5, Replicative DNA helicase DnaB (Mycobacterium tuberculosis, UniProt P9WMR3); assay: DnaB intein splicing inhibitors, dose response, biochemical, cell-free fluorescence (AID 449749); assay type: functional
T5 sequence (P9WMR3 whole entry): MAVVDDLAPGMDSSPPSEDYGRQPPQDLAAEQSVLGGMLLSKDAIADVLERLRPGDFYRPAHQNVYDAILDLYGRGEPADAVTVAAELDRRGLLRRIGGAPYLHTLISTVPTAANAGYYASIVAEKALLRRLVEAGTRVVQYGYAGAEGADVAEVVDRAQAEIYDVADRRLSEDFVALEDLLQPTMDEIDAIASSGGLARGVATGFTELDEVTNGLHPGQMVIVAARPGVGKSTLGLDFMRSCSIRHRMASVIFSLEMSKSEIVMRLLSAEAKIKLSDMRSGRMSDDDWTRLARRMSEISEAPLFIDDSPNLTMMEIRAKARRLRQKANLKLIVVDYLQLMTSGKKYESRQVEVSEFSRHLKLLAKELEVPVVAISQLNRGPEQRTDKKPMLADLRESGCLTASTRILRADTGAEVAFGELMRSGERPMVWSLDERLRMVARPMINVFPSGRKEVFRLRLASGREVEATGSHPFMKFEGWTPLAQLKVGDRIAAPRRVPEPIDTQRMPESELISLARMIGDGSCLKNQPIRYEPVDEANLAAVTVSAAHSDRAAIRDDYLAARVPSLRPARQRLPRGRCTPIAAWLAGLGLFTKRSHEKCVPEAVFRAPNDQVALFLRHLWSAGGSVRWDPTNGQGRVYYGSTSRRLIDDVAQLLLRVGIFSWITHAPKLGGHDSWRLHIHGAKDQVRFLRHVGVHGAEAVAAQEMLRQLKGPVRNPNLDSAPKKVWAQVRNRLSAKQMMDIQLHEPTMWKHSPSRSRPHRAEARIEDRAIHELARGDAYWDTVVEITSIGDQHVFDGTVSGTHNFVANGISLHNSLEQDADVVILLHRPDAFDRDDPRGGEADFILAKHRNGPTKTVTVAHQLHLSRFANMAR

[13] = biological target: T2, G-protein coupled receptor 55; assay: inhibition of LPI-stimulated GPR55 beta-arrestin translocation – imaging, U2OS, beta-arrestin-GFP, LPI agonist, primary screen (AID 2013); assay type: functional;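 further: antagonist potency measured as reduced agonist-driven arrestin aggregation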
HEK293 [14] = assay: optical interference in Abeta FP readout, dose response, artefact control for IDE activator project, biochemical, fluorescence polarization (AID 588442); assay type: functional, cell-based; conditions: Homo sapiens
Insulin-degrading enzyme [15] = biological target: T3, Insulin-degrading enzyme; assay: cellular IDE activation of Abeta substrate cleavage – fluorescence polarization, HEK cells, dose response (AID 588439); assay type: functional, cell-based
BJ [16] = assay: BJ-TERT fibroblast viability loss – cell-based, RAS-independent, luminescence, dose response (AID 1933); assay type: functional; conditions: Homo sapiens
HEK293 [17] = assay: cells; conditions: Homo sapiens; remark: listed apart in the source
Escherichia coli = assay: microbe, parasite or virus in culture
A-375 [18] = assay: proliferation inhibition in MITF-low A375 cells – cell-based, cherry-pick samples, set 2, counter-screen for MITF modulator project, dose response (AID 540335); assay type: functional; conditions: Homo sapiens
A-375 [19] = assay: MITF: Counter assay: A375 proliferation Measured in Cell-Based System Using Plate Reader - 2084-03_Inhibitor_Dose_DryPowder_Activity. [Related pubchem assays (depositor defined):AID488944]; assay type: functional; conditions: Homo sapiens

COC(=O)NCC(c1ccc2c(c1)OCO2)N1CCN(c2ccccc2)CC1 (stereo not drawn)
inactive: EC50 [1] > 92.4 µM | EC50 (Mu-type opioid receptor) 17.3 µM | EC50 [2] > 92.4 µM
active: EC50 [3] 0.105 µM

CCOC(=O)c1c(CSC(=N)N)n(-c2ccc(C)cc2)c2cc(Br)c(OC(C)=O)cc12
inconclusive: EC50 (BJ [7]) 12 µM
inactive: EC50 [4] > 32 µM | EC50 (BJ [5]) > 133 µM | EC50 (Insulin-degrading enzyme [8]) > 54.7 µM | EC50 (HEK293 [11]) > 59.7 µM | EC50 (HEK293 [14]) > 54.7 µM | EC50 (Insulin-degrading enzyme [15]) > 54.7 µM | EC50 (HEK293 [17]) > 59.7 µM
active: CC50 (Vero) > 25 µM | EC50 [6] 9.02 µM | IC50 (HEK293 [9]) 9.83 µM | EC50 (Protein RecA) 4.25 µM | EC50 (BJ [10]) 5.6 µM | AC50 [12] 4.79 µM | IC50 [13] 5.03 µM | EC50 (BJ [16]) 5.98 µM

c1ccc2c(OCCCN3CCCCCC3)cccc2c1
active: AC50 (Escherichia coli) 19.6 µM

CCOc1ccc(/N=C(\C)C2=C(O)c3ccccc3C2=O)cc1
active: AC50 (A-375 [18]) > 35 µM | AC50 (A-375 [19]) > 35 µM
